Reference: article PMC8963254, “Effects of Lysine N-ζ-Methylation in Ultrashort Tetrabasic Lipopeptides (UTBLPs) on the Potentiation of Rifampicin, Novobiocin, and Niclosamide in Gram-Negative Bacteria” (Antibiotics, 2022)
In brackets after ≈: the same amount, converted by molar mass. Read-outs that look alike come from different tables or passages of the source.

Legend:
P. aeruginosa PAO1 [1] = assay type: cell-based, Pseudomonas aeruginosa; conditions: PAO1, 18 h
Procedure: (§1) The in vitro antibacterial activity of the UTBLPs was assessed against wild-type and clinically isolated bacterial strains. To obtain the MIC of the compounds, the microbroth dilution susceptibility assay was performed according to the Clinical and Laboratory Standards Institute (CLSI, Wayne, PA, USA) guidelines and as previously described. Briefly, the compounds at varying concentrations were incubated with bacterial inoculum (5 × 10^5 CFU/mL final concentration) at 37 °C for 18 h. Growth in the form of turbidity was confirmed using an EMax Plus microplate reader (Molecular Devices, San Jose, CA, USA) at 590 nm.

MRSA ATCC 33592 = assay type: cell-based, Staphylococcus aureus; conditions: ATCC 33592, 18 h
Procedure: as §1

S. aureus ATCC 29213 = assay type: cell-based, Staphylococcus aureus; conditions: ATCC 29213, 18 h
Procedure: as §1

[2] = test system: P. aeruginosa PA259-96196; experiment: microbe, parasite or virus in culture; assay type: cell-based, Pseudomonas aeruginosa; conditions: PA259-96196, 18 h
Method in brief: (§2)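 Minimum inhibitory concentration came from a CLSI broth dilution assay: 18 h at 37 °C, inoculum 5 × 10^5 CFU/mL final.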

[3] = test system: P. aeruginosa PA262-101856; experiment: microbe, parasite or virus in culture; assay type: cell-based, Pseudomonas aeruginosa; conditions: PA262-101856, 18 h
Method in brief: as §2

E. cloacae 118564 [4] = experiment: microbe, parasite or virus in culture; assay type: cell-based, Enterobacter cloacae; conditions: 118564, 18 h
Method in brief: as §2

[5] = test system: P. aeruginosa PA259-96196; assay type: cell-based, Pseudomonas aeruginosa; conditions: for MICUTBLP: UTBLP alone
Procedure: (§3) The synergy of the UTBLPs with various antibiotics was assessed using checkerboard assay as previously described. Briefly, the combination of antibiotic and OMP at varying concentrations were incubated with bacterial inoculum (5 × 10^5 CFU/mL final concentration) at 37 °C for 18 h. Growth in the form of turbidity was confirmed using an EMax Plus microplate reader (Molecular Devices, Union City, CA, USA) at 590 nm. Fractional inhibitory concentration index (FICI) was used to evaluate the interaction between the antibiotic and the OMP. FICI is the sum of the FIC of the antibiotic and the FIC of the OMP. The FIC value is calculated by dividing the MIC of the agents in combination by the MIC of the agent alone. FICI ≤ 0.5 is synergistic, 0.5 < x ≤ 4 is additive, and >4 is antagonistic.

[6] = test system: P. aeruginosa PA262-101856; assay type: cell-based, Pseudomonas aeruginosa; conditions: for MICUTBLP: UTBLP alone
Procedure: as §3

P. aeruginosa PAO1 [7] = assay type: cell-based, Pseudomonas aeruginosa; conditions: for MICUTBLP: UTBLP alone
Procedure: as §3

A. baumannii 92247 = assay type: cell-based, Acinetobacter baumannii; conditions: for MICUTBLP: UTBLP alone
Procedure: as §3

A. baumannii AB027 = assay type: cell-based, Acinetobacter baumannii; conditions: for MICUTBLP: UTBLP alone
Procedure: as §3

A. baumannii ATCC 17978 = assay type: cell-based, Acinetobacter baumannii; conditions: for MICUTBLP: UTBLP alone
Procedure: as §3

E. cloacae 118564 [8] = assay type: cell-based, Enterobacter cloacae; conditions: for MICUTBLP: UTBLP alone
Procedure: as §3

[9] = UTBLP in combination with novobiocin
[10] = UTBLP in combination with rifampicin
[11] = novobiocin in combination with the UTBLP
[12] = rifampicin in combination with the UTBLP
[13] = UTBLP in combination with chloramphenicol
[14] = UTBLP in combination with niclosamide
[15] = chloramphenicol in combination with the UTBLP
[16] = niclosamide in combination with the UTBLP

## CCCCCCCC(=O)N[C@@H](CCCCNC)C(=O)NCCCN(CCCNC(=O)[C@H](CCCCNC)NC(=O)CCCCCCC)CC(=O)N[C@@H](CCCCNC)C(N)=O [UTBLP 2]
P. aeruginosa PAO1 [1]
  MIC: >128 µg/mL
MRSA ATCC 33592
  MIC: >128 µg/mL
S. aureus ATCC 29213
  MIC: 128 µg/mL (≈ 148 µM)
[2]
  MIC: > 128 µg/mL
[3]
  MIC: > 128 µg/mL
E. cloacae 118564 [4]
  MIC: > 128 µg/mL
[5]; UTBLP + novobiocin
  Interpretation: Synergy (FICI ≤ 0.5 is synergistic)
[5]; UTBLP + rifampicin
  Interpretation: Synergy (FICI ≤ 0.5 is synergistic)
[5]; plate with novobiocin
  MICUTBLP: > 128 µg/mL
[5]; plate with rifampicin
  MICUTBLP: > 128 µg/mL
[5]; [9]
  MICUTBLP [MICcombo]: 16 µg/mL
[5]; [10]
  MICUTBLP [MICcombo]: 16 µg/mL
[5]; [11]
  MICantibiotic [MICcombo]: 512 µg/mL
[5]; [12]
  MICantibiotic [MICcombo]: 4 µg/mL
[6]; UTBLP + novobiocin
  Interpretation: Additive (0.5 < x ≤ 4 is additive)
[6]; UTBLP + rifampicin
  Interpretation: Additive (0.5 < x ≤ 4 is additive)
[6]; plate with novobiocin
  MICUTBLP: > 128 µg/mL
[6]; plate with rifampicin
  MICUTBLP: > 128 µg/mL
[6]; [9]
  MICUTBLP [MICcombo]: 16 µg/mL
[6]; [10]
  MICUTBLP [MICcombo]: 0.25 µg/mL
[6]; [11]
  MICantibiotic [MICcombo]: 512 µg/mL
[6]; [12]
  MICantibiotic [MICcombo]: 512 µg/mL
P. aeruginosa PAO1 [7]; UTBLP + chloramphenicol
  Interpretation: Synergy (FICI ≤ 0.5 is synergistic)
P. aeruginosa PAO1 [7]; UTBLP + niclosamide
  Interpretation: Additive (0.5 < x ≤ 4 is additive)
P. aeruginosa PAO1 [7]; UTBLP + novobiocin
  Interpretation: Synergy (FICI ≤ 0.5 is synergistic)
P. aeruginosa PAO1 [7]; UTBLP + rifampicin
  Interpretation: Additive (0.5 < x ≤ 4 is additive)
P. aeruginosa PAO1 [7]; plate with chloramphenicol
  MICUTBLP: > 128 µg/mL
P. aeruginosa PAO1 [7]; plate with niclosamide
  MICUTBLP: > 128 µg/mL
P. aeruginosa PAO1 [7]; plate with novobiocin
  MICUTBLP: > 128 µg/mL
P. aeruginosa PAO1 [7]; plate with rifampicin
  MICUTBLP: > 128 µg/mL
P. aeruginosa PAO1 [7]; [13]
  MICUTBLP [MICcombo]: 8 µg/mL
P. aeruginosa PAO1 [7]; [14]
  MICUTBLP [MICcombo]: 0.25 µg/mL
P. aeruginosa PAO1 [7]; [9]
  MICUTBLP [MICcombo]: 16 µg/mL
P. aeruginosa PAO1 [7]; [10]
  MICUTBLP [MICcombo]: 8 µg/mL
P. aeruginosa PAO1 [7]; [15]
  MICantibiotic [MICcombo]: 8 µg/mL
P. aeruginosa PAO1 [7]; [16]
  MICantibiotic [MICcombo]: 1024 µg/mL
P. aeruginosa PAO1 [7]; [11]
  MICantibiotic [MICcombo]: 256 µg/mL
P. aeruginosa PAO1 [7]; [12]
  MICantibiotic [MICcombo]: 8 µg/mL
A. baumannii 92247; UTBLP + novobiocin
  Interpretation: Synergy (FICI ≤ 0.5 is synergistic)
A. baumannii 92247; UTBLP + rifampicin
  Interpretation: Synergy (FICI ≤ 0.5 is synergistic)
A. baumannii 92247; plate with novobiocin
  MICUTBLP: > 128 µg/mL
A. baumannii 92247; plate with rifampicin
  MICUTBLP: > 128 µg/mL
A. baumannii 92247; [9]
  MICUTBLP [MICcombo]: 16 µg/mL
A. baumannii 92247; [10]
  MICUTBLP [MICcombo]: 16 µg/mL
A. baumannii 92247; [11]
  MICantibiotic [MICcombo]: 0.25 µg/mL
A. baumannii 92247; [12]
  MICantibiotic [MICcombo]: 0.063 µg/mL
A. baumannii AB027; UTBLP + novobiocin
  Interpretation: Synergy (FICI ≤ 0.5 is synergistic)
A. baumannii AB027; UTBLP + rifampicin
  Interpretation: Synergy (FICI ≤ 0.5 is synergistic)
A. baumannii AB027; plate with novobiocin
  MICUTBLP: > 128 µg/mL
A. baumannii AB027; plate with rifampicin
  MICUTBLP: > 128 µg/mL
A. baumannii AB027; [9]
  MICUTBLP [MICcombo]: 16 µg/mL
A. baumannii AB027; [10]
  MICUTBLP [MICcombo]: 16 µg/mL
A. baumannii AB027; [11]
  MICantibiotic [MICcombo]: 0.25 µg/mL
A. baumannii AB027; [12]
  MICantibiotic [MICcombo]: 0.063 µg/mL
A. baumannii ATCC 17978; UTBLP + chloramphenicol
  Interpretation: Additive (0.5 < x ≤ 4 is additive)
A. baumannii ATCC 17978; UTBLP + niclosamide
  Interpretation: Synergy (FICI ≤ 0.5 is synergistic)
A. baumannii ATCC 17978; UTBLP + novobiocin
  Interpretation: Synergy (FICI ≤ 0.5 is synergistic)
A. baumannii ATCC 17978; UTBLP + rifampicin
  Interpretation: Synergy (FICI ≤ 0.5 is synergistic)
A. baumannii ATCC 17978; plate with chloramphenicol
  MICUTBLP: > 128 µg/mL
A. baumannii ATCC 17978; plate with niclosamide
  MICUTBLP: > 128 µg/mL
A. baumannii ATCC 17978; plate with novobiocin
  MICUTBLP: > 128 µg/mL
A. baumannii ATCC 17978; plate with rifampicin
  MICUTBLP: > 128 µg/mL
A. baumannii ATCC 17978; [13]
  MICUTBLP [MICcombo]: 0.25 µg/mL
A. baumannii ATCC 17978; [14]
  MICUTBLP [MICcombo]: 8 µg/mL
A. baumannii ATCC 17978; [9]
  MICUTBLP [MICcombo]: 8 µg/mL
A. baumannii ATCC 17978; [10]
  MICUTBLP [MICcombo]: 16 µg/mL
A. baumannii ATCC 17978; [15]
  MICantibiotic [MICcombo]: 64 µg/mL
A. baumannii ATCC 17978; [16]
  MICantibiotic [MICcombo]: 2 µg/mL
A. baumannii ATCC 17978; [11]
  MICantibiotic [MICcombo]: 0.5 µg/mL
A. baumannii ATCC 17978; [12]
  MICantibiotic [MICcombo]: 0.031 µg/mL
E. cloacae 118564 [8]; UTBLP + novobiocin
  Interpretation: Synergy (FICI ≤ 0.5 is synergistic)
E. cloacae 118564 [8]; UTBLP + rifampicin
  Interpretation: Synergy (FICI ≤ 0.5 is synergistic)
E. cloacae 118564 [8]; plate with novobiocin
  MICUTBLP: > 128 µg/mL
E. cloacae 118564 [8]; plate with rifampicin
  MICUTBLP: > 128 µg/mL
E. cloacae 118564 [8]; [9]
  MICUTBLP [MICcombo]: 16 µg/mL
E. cloacae 118564 [8]; [10]
  MICUTBLP [MICcombo]: 16 µg/mL
E. cloacae 118564 [8]; [11]
  MICantibiotic [MICcombo]: 8 µg/mL
